Data published in ChEMBL document CHEMBL1158516, “Synthesis and application of a photoaffinity analog of dehydroepiandrosterone (DHEA)” (Bioorg Med Chem Lett, 2010).
Activity calls are given as the source filed them. The calls are words filed in the database; no cut-off is given here.

System: Endothelial cell
Test: Binding affinity to DHEA receptor in bovine aortic endothelial cells exposed to UV for 15 mins at 5 nM after 1 hr by chemiluminescence
Format: cell-based
Settings: Bos taurus

Structure (SMILES) | Activity
O=C(CCCC[C@@H]1SC[C@@H]2NC(=O)N[C@@H]21)NCCCC[C@H](NC(=O)c1ccc(C(=O)c2ccccc2)cc1)C(=O)O | inactive
C[C@]12CC[C@H](O)CC1=CC[C@@H]1[C@@H]2CC[C@]2(C)/C(=N/OCC(=O)NCCCCCCNC(=O)[C@H](CCCCNC(=O)CCCC[C@@H]3SC[C@@H]4NC(=O)N[C@@H]43)NC(=O)c3ccc(C(=O)c4ccccc4)cc3)CC[C@@H]12 | Active
